Test results as given in patent US20220288091A1, “Method for Improving Insulin Sensitivity” (priority 2019, published 2022).

Test system: hypothalamic-pituitary-adrenal axis
Test: 24-hour urinary free cortisol (UFC)
Type: in vivo, human
Details: 50 mg every 6 hours for 9 days; for Urinary Free Cortisol (24-hour UFC): mean±SD, n=16, normal 3.5-45
Description: Urine cortisol and other surrogate biochemical markers of HPA activation: This includes all tests currently available or subsequently developed that may be used to evaluate the effects of GRA dose and schedule on the HPA axis. Normal 24-hour urine free cortisol (UFC) levels range from […] when measured in most tandem mass spectrometry assays. Values are higher when measured by immunoassays because of cross-reactivity with the antibodies used in those assays with other steroids that are structurally similar to cortisol. Measurement of UFC by tandem mass spectrometry is the preferred method to assess the effect of GRAs on the HPA axis for three reasons: 1. ease of collection, 2. specificity of the assay (it measures only cortisol) and 3. the well-established range of values seen in physiologic stress, or Pseudo-Cushing's syndrome, which is 1-3 times the upper limit of the normal reference range. However, other biochemical tests may be used as surrogate biochemical markers of the HPA axis, including, but not limited to measurement of serum or salivary cortisol at multiple time-points throughout a 24 hour period, including both the day and night, which is expressed as either the mean value or the area under the curve. Normal ranges for all cortisol assays and 24-hour assessments will vary depending on the assay technique, and reagents, and must be used based on locally-determined values, or values provided by the manufacturer of an assay kit. The results obtained from any of these assays are then used to determine whether the dosage of the one or more GR antagonists need to be adjusted upwards or downwards so as to maintain 24-hour serum or urinary free cortisol levels at no more than about two or three times the upper level of the normal range, respectively.
Initially, 19 subjects underwent randomization. […]
To reduce potential variability associated with estrogen in premenopausal women, testing was performed in the early follicular phase (days 1-7 of menstrual cycle). Baseline height and weight were measured after an overnight fast. […]

SMILES: CC#C[C@]1(O)CC[C@H]2[C@@H]3CCC4=CC(=O)CCC4=C3[C@@H](c3ccc(N(C)C)cc3)C[C@@]21C [Mifepristone, 11beta-[p-(dimethylamino)phenyl]-17alpha-(1-propynl)estra-4,9-dien-17beta-ol-3-one]
- Urinary Free Cortisol (24-hour UFC): 74.1 ± 75.3 μg/24 hr
- Urinary Free Cortisol (24-hour UFC) (listed as mifepristone): 74.1±75.3 μg/24 hr
- Post-treatment mean UFC in the 8 subjects above the normal limit (subgroup of 8 subjects): 120.4±83.9 μg/24 hr
